# Reference: patent publication EP0297435A2, “Aminopropanol derivatives of 3-(3'-hydroxyphenyl)-1-propanone, process for their preparation and medicines containing these compounds” (Helopharm W. Petrik GmbH & Co.KG., priority 1987, dated 1989)
# Key:
# [1] = test system: Meerschweinchen-Papillarmuskel; assay: Effect on contraction force of the heart, guinea pig papillary muscle; type: cell-based; conditions: contraction force (negative inotropy), read-out: C20 CF
# Excerpt: Die Wirkung auf die Kontraktionskraft des Herzens wurde am Meerschweinchen-Papillarmuskel untersucht. Hämodynamische Studien wurden bei gesunden, wie auch akut infarzierten Hunden durchgeführt.
# [2] = test system: Purkinje-Fasern aus Hundeherzen; assay: Electrophysiological studies on Purkinje fibres from dog hearts (Vmax); type: cell-based, Hund
# Excerpt: Die antiarrhythmische Wirksamkeit der erfindungsgemäßen Verbindungen wurde sowohl anhand von elektrophysiologischen Studien an Purkinje-Fasern aus Hundeherzen sowie mit Hilfe von Ouabaininduzierten ventrikulären Tachykardien bei Hunden bestimmt. […]
# Als zusätzliches Kriterium wurde der Vorzeitigkeitsindex (Prematurity-Faktor) bestimmt, der die erwünschte Wirksamkeit der erfindungsgemäßen Verbindungen bei vorzeitigen Extrasystolen charakterisiert.
# [3] = Acute toxicity LD50 in rats, i.v.; conditions: rat, in vivo, iv; Ratte (i.v.); read-out: LD₅₀
# [4] = Acute toxicity LD50 in mice, i.v.; conditions: mouse, in vivo, iv; Maus (i.v.); read-out: LD₅₀
smiles,measurement,setting,value
"CCC(C)(C)NCC(O)COc1cc(CCC(=O)c2ccc(C)cc2)ccc1OC.Cl (stereo not drawn) [Beispiel 36, 1-(4-Methylphenyl)-3-[3′-(2-hydroxy-3-tert.-pentylaminopropoxy)-4′-methoxyphenyl]-1-propanon-hydrochlorid]",IC20,[1],8 µM
same,IC20,"[2]; Purkinje-Fasern aus Hundeherzen, read-out: C20 Vmax",2.8 µM
same,Prematurity Faktor Vmax,"[2]; Vorzeitigkeitsindex, activity on premature extrasystoles","0,99"
same,Rate-Faktor von Vmax,[2]; specifically stronger activity at higher frequencies,"1,41"
same,LD50,[3],10 mg/kg
same,LD50,[4],18 mg/kg
